Source: patent US20110028758A1, “Trans-cinnamic acid derivative, its preparation mathod and the use” (priority 2007, published 2011)
≈ marks a conversion by molar mass, not a printed value. Read-outs that look alike come from different tables or passages of the source.

Legend:
[1] = tested on: human breast cancer MCF-7/S cells; assay: MTT anti-tumor test in vitro, MCF-7/S; assay type: cell-based; settings: Homo sapiens, MCF7S, 48 h, MCF-7 (MCF-7/S)
Excerpt: (§1) A complete culture medium is used for diluting the above original solution into corresponding concentrations for later use.
(§2) Human cervical carcinoma Hela cells, human hepatoma BEL-7402 cells, mucinous Human epidermoid A549 lung cancer cells, human breast cancer MCF-7/S cells, human glioma U251 cells, and human normal embryonic kidney HEK-293 cells are purchased from USA, American Type Culture Collection (ATCC). All the tumor cells are used the DMEM medium (containing 10% FBS, 100 U/ml penicillin and 100 μg/ml streptomycin) for culturing and subculturing, and HEK-293 cells are using RPMI1640 medium (10% FBS, 100 U/ml penicillin, and 100 μg/ml streptomycin) for culturing and subculturing, wherein the culture condition is in a 5% CO2 incubator at 37° C.
(§3) Subculture six kinds of cells, which has a logarithmic growing period, adherent rate about 80%, and in good condition, such as human cervical carcinoma Hela cells, human hepatoma BEL-7402 cells, mucinous Human epidermoid A549 lung cancer cells, human breast cancer MCF-7/S cells, human glioma U251 cells, and human normal embryonic kidney HEK-293 cells. Discard the culture medium, rinse 1-2 times with PBS to remove serum, add 1 ml 0.25% Trypsin-0.01% EDTA (37° C. incubation) to digest for 1-2 minutes, add FBS culture medium to terminate the above digestion, centrifuge at a speed below 800 r/min for 2-3 minutes and discard the supernatant, re-suspended cells in 10% FBS medium, tack the cell suspension liquid for cell counting, adjust the density of the above liquid to 1×10^5/ml, then inoculate to a 96-holes plates (100 μl/hole), and then incubate in 5% CO2 incubator at 37° C. overnight. The next day add above cells to different concentrations of I-a, I-b, I-c and I-d, 100 μl/hole (its final concentration is respectively 30, 60, 120, 240, 480 μg/ml); meanwhile, set up the blank control group (0 μM), and establish 3 holes. Continuing the cultural process, discard the culture medium after 48 hours that the drug has been effected, add 100 μl PBS of 0.5 mg/ml MTT (PH 7.2) into each holes, after 4 hours culture, remove the culture medium by adherent cells express flipping method, add 100 μl of DMSO to each holes, oscillate it by micro-oscillation device for 5 minutes, and measure the OD value at 490 nm wavelength. Repeat the above experiment three times to get an average value. Calculate the inhibition rate (IR %) of the tumor cell proliferation in vitro from different concentrations of I-a, I-b, I-c, I-d by the following formula:
(§4) IR %=(1−ODsampale/ODcontrol)×100%
(§5) Use SPSS11.5 software to calculate the half inhibitory concentration IC50 of I-a, I-b, I-c and I-d. The results are shown in Table 2 to illustrate IC50 values (unit: μg/ml) of the four compounds.

[2] = tested on: human cervical carcinoma Hela cells; assay: MTT anti-tumor test in vitro, Hela; assay type: cell-based; settings: Homo sapiens, HeLa, 48 h
Excerpt: as §1, §2, §3, §4, §5

[3] = Solubility of compounds in solvents (Table 1); assay type: physicochemical
[4] = tested on: mice ascites hepatoma cell strain H22; assay: Anti-tumor test in vivo, mice transplanted tumor of liver cancer H22; set-up: species or system Kunming mice
Method: The mice ascites hepatoma cell strain H22 is purchased from the Experimental Center of Zhongshan University.
Recovery the mice ascites hepatoma cell strain H22, put the cell suspension liquid into a centrifugal tube and use the 4° C. saline to wash the suspension liquid twice, then centrifuge to discard the supernatant, add appropriate 4° C. saline to dilute the suspension liquid, count cells with 0.2% trypan blue, adjust the density to 10^7 cell/ml, according to 0.2 (ml/mice) intraperitoneal inoculation H22 cell suspension liquid.
After ten days of the intraperitoneal inoculation, the cervical vertebra is dislocated. Disinfect the mice abdominal skin, and suck the milky ascites with a sterile syringe, then adjust the concentration of tumor cells to 1×10^7 cell/ml with injection used saline. Disinfect the right armpit skin of the Kunming mice with alcohol swab, subcutaneously vaccinate the cell suspension liquid 0.2 ml, conventional feeding. […] Totally there are 180 tumor-bearing mice.
The 180 tumor-bearing mice are divided into 18 groups by the weigh of the mice, wherein each group has 10 mice (half male and half female). The drug delivery methods of each group are shown in Table 3 to illustrate eighteen groups of mice drug delivery situation.
Group 1 is the model group, and the mice of group 1 are given the tail vein saline injection daily started on the second day of the tumor-bearing for 10 days.
Group 2 is the cyclophosphamide (CTX) group, and the mice of group 2 are only given the cyclophosphamide in the intraperitoneal of the mice on the second day of the tumor-bearing.
Group 3 to 18 groups are given the four compounds respectively, wherein the groups delivered 25 mg/kg drug are tail vein low-dose group, wherein the groups delivered 50 mg/kg drugs are the tail vein medium-dose group, wherein the groups delivered 100 mg/kg drugs are the tail vein high-dose group, wherein the groups delivered 200 mg/kg drugs are the oral enteral group. These mice from group 3 to 18 start the drug delivery on the second day of the tumor-bearing, and delivered once a day for 10 sequent days.
The above drug deliveries are 20 ml/kg.
After finishing the drug delivery process, weight the mice, then kill the mice by pulling off the neck, and anatomy to get the tumor tissue of the mice on the next day of finishing the drug delivery process, and then weight the anatomized tumor by electronic weighing scales to calculate the inhibition rate.

[5] = tested on: human normal embryonic kidney HEK-293 cells; assay: MTT test on normal cells, HEK-293; assay type: cell-based; settings: for IC50: Homo sapiens; for inhibitory effect on HEK-293 cells: at concentrations having 50% inhibitory effect on the tumor cells
Excerpt: as §1, §2
Subculture six kinds of cells, which has a logarithmic growing period, adherent rate about 80%, and in good condition, such as human cervical carcinoma Hela cells, human hepatoma BEL-7402 cells, mucinous Human epidermoid A549 lung cancer cells, human breast cancer MCF-7/S cells, human glioma U251 cells, and human normal embryonic kidney HEK-293 cells. […] Repeat the above experiment three times to get an average value.
as §4

[6] = tested on: human hepatoma BEL-7402 cells; assay: MTT anti-tumor test in vitro, BEL-7402; assay type: cell-based; settings: Homo sapiens, Bel-7402, 48 h, Bel- (BEL-7402)
Excerpt: as §1, §2, §3, §4, §5

[7] = average of three experiments ± SD
[8] = Hela, average of three experiments ± SD, MTT, 48 hours, read-out: IC50 value
[9] = Hela, experiment 1, MTT, 48 hours, read-out: IC50 value
[10] = Hela, experiment 2, MTT, 48 hours, read-out: IC50 value
[11] = Hela, experiment 3, MTT, 48 hours, read-out: IC50 value
[12] = read-out: HeLa cell proliferation IC50 values
[13] = i.g. 200 mg·(kg·d)^−1, once a day for 10 days
[14] = i.v. 25 mg·(kg·d)^−1, once a day for 10 days
[15] = i.v. 25 mg·(kg·d)^−1, once a day for 10 days (low-dose group)
[16] = i.v. 50 mg·(kg·d)^−1, once a day for 10 days
[17] = i.v. 50 mg·(kg·d)^−1, once a day for 10 days (medium-dose group)
[18] = i.v. 100 mg·(kg·d)^−1, once a day for 10 days
[19] = HEK293, 48 h, HEK- (HEK-293), average of three experiments ± SD, MTT, 48 hours, read-out: IC50 value
[20] = HEK293, 48 h, HEK- (HEK-293), experiment 1, MTT, 48 hours, read-out: IC50 value
[21] = HEK293, 48 h, HEK- (HEK-293), experiment 2, MTT, 48 hours, read-out: IC50 value
[22] = HEK293, 48 h, HEK- (HEK-293), experiment 3, MTT, 48 hours, read-out: IC50 value
[23] = HEK293, text, read-out: HEK-293 cells IC50 values

SMILES | IC50 [1, 7] [µg/mL] | IC50 ([1]; experiment 2) [µg/mL] | IC50 ([1]; experiment 3) [µg/mL] | IC50 [2, 8] [µg/mL] | IC50 [2, 10] [µg/mL] | IC50 [2, 11] [µg/mL] | IC50 [2, 12] [µg/mL] | Solubility ([3]; solvent 0.1% NaOH) | Solubility ([3]; solvent Acetone) | Solubility ([3]; solvent Chloroform) | Solubility ([3]; solvent DMSO) | Solubility ([3]; solvent Ethanol) | Solubility ([3]; solvent Methanol) | Tumor weight/g [4, 13] [g] | Tumor weight/g [4, 14] [g] | IR/% (inhibition rate) [4, 15] [%] | Tumor weight/g [4, 16] [g] | Tumor weight/g [4, 18] [g] | IC50 [5, 19] [µg/mL] | IC50 [5, 21] [µg/mL] | also measured
COc1ccc(/C=C\C(=O)O)c(OC)c1CC=C(C)C [I-b, (Z)-2,4-dimethoxy-3-isopentenyl-cinnamic acid] | 311 ± 7.31 (≈ 1130 µM) | 317 (≈ 1150 µM) | 303 (≈ 1100 µM) | 324 ± 11.6 (≈ 1170 µM) | 310 (≈ 1120 µM) | 328 (≈ 1190 µM) | 324 ± 11.6 (≈ 1170 µM) | Soluble | Dissolved | Dissolved | Soluble | Dissolved | Soluble | 1.108 ± 0.364 | 1.367 ± 0.524 | 10.8 | 1.152 ± 0.47 | 0.911 ± 0.417 | 365 ± 6.14 (≈ 1320 µM) | 371 (≈ 1340 µM) | IC50 ([1]; experiment 1): 312 µg/mL (≈ 1130 µM); IC50 [2, 9]: 331 µg/mL (≈ 1200 µM); IR/% (inhibition rate) [4, 17]: 24.8%; IC50 [5, 20]: 358 µg/mL (≈ 1300 µM); IC50 [5, 22]: 366 µg/mL (≈ 1320 µM); IC50 [6, 7]: 346 ± 10.1 µg/mL (≈ 1250 µM); IC50 ([6]; experiment 1): 343 µg/mL (≈ 1240 µM); IC50 ([6]; experiment 2): 357 µg/mL (≈ 1290 µM); IC50 ([6]; experiment 3): 338 µg/mL (≈ 1220 µM)
COc1ccc(/C=C/C(=O)O)c(OC)c1CC=C(C)C [I-c, (E)-2,4-dimethoxy-3-isopentenyl-cinnamic acid] | 235 ± 5.68 (≈ 849 µM) | 229 (≈ 829 µM) | 240 (≈ 869 µM) | 96.2 ± 1.25 (≈ 348 µM) | 85.6 (≈ 310 µM) | 97 (≈ 351 µM) | 96.2 ± 1.25 (≈ 348 µM) | Soluble | Dissolved | Dissolved | Soluble | Dissolved | Soluble | 0.866 ± 0.489 | 1.322 ± 0.278 | 13.7 | 0.875 ± 0.379 | 0.782 ± 0.368 | 369 ± 13.6 (≈ 1340 µM) | 367 (≈ 1330 µM) | IC50 ([1]; experiment 1): 234 µg/mL (≈ 847 µM); IC50 [2, 9]: 95 µg/mL (≈ 344 µM); IC50 [5, 20]: 383 µg/mL (≈ 1390 µM); IC50 [5, 22]: 356 µg/mL (≈ 1290 µM); IC50 [5, 23]: 369 ± 13.6 µg/mL (≈ 1340 µM); inhibitory effect on HEK-293 cells [5]: unobvious; IC50 [6, 7]: 313 ± 11.7 µg/mL (≈ 1130 µM); IC50 ([6]; experiment 1): 315 µg/mL (≈ 1140 µM); IC50 ([6]; experiment 2): 300 µg/mL (≈ 1090 µM); IC50 ([6]; experiment 3): 323 µg/mL (≈ 1170 µM)
COc1ccc(/C=C/C(=O)O)c(O)c1CC=C(C)C [I-a, (E)-2-hydroxy-4-methoxy-3-isopentenyl-cinnamic acid] | 225 ± 11.9 (≈ 857 µM) | 216 (≈ 823 µM) | 219 (≈ 835 µM) | 103 ± 8.48 (≈ 391 µM) | 115 (≈ 438 µM) | 96 (≈ 366 µM) | 103 ± 8.48 (≈ 391 µM) | Soluble | Soluble | Dissolved | Soluble | Soluble | Soluble | 0.907 ± 0.424 | 1.398 ± 0.355 | 8.8 | 1.047 ± 0.342 | 0.775 ± 0.381 | 404 ± 9.2 (≈ 1540 µM) | 399 (≈ 1520 µM) | IR/% (inhibition rate) [4, 17]: 31.7%; IC50 [5, 22]: 414 µg/mL (≈ 1580 µM); IC50 [5, 23]: 404 ± 9.2 µg/mL (≈ 1540 µM); inhibitory effect on HEK-293 cells [5]: unobvious; IC50 [6, 7]: 249 ± 17.9 µg/mL (≈ 950 µM); IC50 ([6]; experiment 2): 237 µg/mL (≈ 904 µM); IC50 ([6]; experiment 3): 269 µg/mL (≈ 1030 µM)
